Legend:
patients with RRMS [1] = details: pooled ALLEGRO and BRAVO, all patients, 0.6 mg QD vs PBO; cited from earlier work
patients with RRMS [2] = experiment: Post hoc analysis of pooled ALLEGRO and BRAVO trials by baseline EDSS subgroup; assay type: in vivo, human; details: for Annualized Relapse Rate, Ratio: LAQ 0.6 mg vs PBO
Text: The observed effect of LAQ on Confirmed Disability Progression (CDP) is disproportionately larger than would be predicted by the observed LAQ effect on relapse rate reduction.
ALELGRO and BRAVO trials described above enrolled ambulatory patients with RRMS, aged 18-55 years, with EDSS scores ≦5.5. Patients included in the study had • 1. ≧1 relapse in the previous year, or • 2. 2 relapses in the previous 2 years, or • 3. 1 relapse in the previous 1-2 years and ≧1 GdE lesion in the previous year.
Patients were randomized 1:1 to LAQ 0.6 mg or PBO in the ALLEGRO study; in BRAVO patients were randomized 1:1:1 LAQ 0.6 or PBO or weekly interferon β 1a 30 μg.
This post hoc analysis include patients randomized to LAQ 0.6 mg or PBO only. Endpoints include ARR, time to CDP (defined as an increase from baseline in EDSS score of ≧1 point if baseline EDSS is ≦5, or of ≧0.5 point if baseline EDSS is >5), sustained for 3 or 6 months; and MSFC components including the Timed 25-Foot Walk (T25FW) test.
LAQ vs. […] Adjusted mean z-score differences and 95% CIs were evaluated by ANCOVA.
MRI endpoints included brain atrophy measured percent brain volume change (PBVC), and cumulative numbers of gadolinium-enhancing (GdE) and new T2 lesions at months 12 and 24.

CCN(C(=O)c1c(O)c2c(Cl)cccc2n(C)c1=O)c1ccccc1 [Laquinimod, laquinimod]
Reduction in 6-month confirmed disability progression (CDP) (patients with RRMS [1]): 46% | T25FW time increase after 24 months (adjusted mean) (patients with RRMS [2]; baseline EDSS >3): 1.9 s | 9HPT Change from Baseline to Month 24, Adj. Mean Diff. (patients with RRMS [2]; baseline EDSS >3.0): −1.590 | Brain Atrophy as defined by PBVC, adjusted mean difference (patients with RRMS [2]; baseline EDSS >3.0): 0.39 | Cumulative GdE T1 Lesions at Months 12 and 24, Rate Ratio (patients with RRMS [2]; baseline EDSS >3.0): 0.83 | Cumulative New/Enlarging T2 Lesions at Months 12 and 24, Rate Ratio (patients with RRMS [2]; baseline EDSS >3.0): 0.75 | Disability as Assessed by MSFC z-Score at Month 24, adjusted mean difference (patients with RRMS [2]; baseline EDSS >3.0): 0.25 | PASAT Change from Baseline to Month 24, Adj. Mean Diff. (patients with RRMS [2]; baseline EDSS >3.0): 0.586 | Time to 3-month CDP, Hazard Ratio (patients with RRMS [2]; baseline EDSS >3.0): 0.60 | Time to 6-month CDP, Hazard Ratio (patients with RRMS [2]; baseline EDSS >3.0): 0.47 | Reduction in 6-month CDP (patients with RRMS [2]; baseline EDSS >3 (worsening MS), vs PBO): 53% | Reduction of 3-month CDP (patients with RRMS [2]; baseline EDSS >3, vs PBO): 40% | Reduction of ARR (patients with RRMS [2]; baseline EDSS >3, vs PBO): 25% | Improvement / treatment effect size on the T25FW component (patients with RRMS [2]; baseline EDSS >3, vs PBO, 24 months): 59% | Annualized Relapse Rate, Ratio (patients with RRMS [2]; baseline EDSS >3.0): 0.75 | T25FW Change from Baseline to Month 24, Adj. Mean Diff. (patients with RRMS [2]; baseline EDSS >3.0, listed as LAQ): -2.79 s | T25FW treatment effect among subjects who experienced CDP (patients with RRMS [2]; baseline EDSS >3 with CDP, vs PBO): 8.6 s | Treatment differences in T25FW (patients with RRMS [2]; baseline EDSS ≦3): No treatment differences | 9HPT Change from Baseline to Month 24, Adj. Mean Diff. (patients with RRMS [2]; baseline EDSS ≦3.0): −1.108 | Brain Atrophy as defined by PBVC, adjusted mean difference (patients with RRMS [2]; baseline EDSS ≦3.0): 0.34 | Cumulative GdE T1 Lesions at Months 12 and 24, Rate Ratio (patients with RRMS [2]; baseline EDSS ≦3.0): 0.66 | Cumulative New/Enlarging T2 Lesions at Months 12 and 24, Rate Ratio (patients with RRMS [2]; baseline EDSS ≦3.0): 0.77 | Disability as Assessed by MSFC z-Score at Month 24, adjusted mean difference (patients with RRMS [2]; baseline EDSS ≦3.0): −0.02 | PASAT Change from Baseline to Month 24, Adj. Mean Diff. (patients with RRMS [2]; baseline EDSS ≦3.0): 0.302 | T25FW Change from Baseline to Month 24, Adj. Mean Diff. (patients with RRMS [2]; baseline EDSS ≦3.0): 0.055 s | Time to 3-month CDP, Hazard Ratio (patients with RRMS [2]; baseline EDSS ≦3.0): 0.69 | Time to 6-month CDP, Hazard Ratio (patients with RRMS [2]; baseline EDSS ≦3.0): 0.60 | Annualized Relapse Rate, Ratio (patients with RRMS [2]; baseline EDSS ≦3.0): 0.80

Source: patent publication US9662322B2 (TEVA PHARMACEUTICAL INDUSTRIES, LTD., priority 2014, dated 2017)
